Experimental data as given in patent US10745416B2, “Macrocyclic compounds for treating disease” (Turning Point Therapeutics, Inc., priority 2017, dated 2020).

Columns and labels:
Assay in all cases: Cell proliferation assay (CellTiter-Glo, 72 hours)
BaF3 KIF5B-RET = biological target: T1, BaF3 KIF5B-RET (Homo sapiens, UniProt P07949); type: cell-based; conditions: anti-cell proliferation, read-out: BaF3 KIF5B-RET IC50
T1 construct: fused on or other part: P33176 (Kinesin-1 heavy chain)
Description: (§1) The KIF5B-RET gene was synthesized at GenScript and cloned into pCDH-CMV-MCS-EF1-Puro plasmid (System Biosciences, Inc). KIF5B-RET point mutation V804M was generated at GenScript by PCR and confirmed by sequencing. Ba/F3-KIF5B-RET wild type and mutant were generated by transducing Ba/F3 cells with lentivirus containing KIF5B-RET wide type or mutant. Stable cell lines were selected by puromycin treatment, followed by IL-3 withdrawal. Briefly, 5×10^6 Ba/F3 cells were transduced with lentivirus supernatant in the presence of 8 μg/mL protamine sulfate. The transduced cells were subsequently selected with 1 µg/mL puromycin in the presence of IL3-containing medium RPMI1640, plus 10% FBS. After 10-12 days of selection, the surviving cells were further selected for IL3 independent growth.
(§2) Two thousand cells per well were seeded in 384 well white plate for 24 hrs, and then treated with compounds for 72 hours (37° C., 5% CO2). Cell proliferation was measured using CellTiter-Glo luciferase-based ATP detection assay (Promega) following the manufactures's protocol. IC50 determinations were performed using GraphPad Prism software (GraphPad, Inc., San Diego, Calif.).

BaF3 KIF5B-RET_G810R = biological target: T2, BaF3 KIF5B-RET_G810R (Homo sapiens, UniProt P07949, G810R, cells depend on it); type: cell-based; conditions: anti-cell proliferation, read-out: BaF3 KIF5B-RET_G810R IC50
T2 construct: fused on or other part: P33176 (Kinesin-1 heavy chain)
T2 sequence (P07949 whole entry G810R, the tested form may be a part): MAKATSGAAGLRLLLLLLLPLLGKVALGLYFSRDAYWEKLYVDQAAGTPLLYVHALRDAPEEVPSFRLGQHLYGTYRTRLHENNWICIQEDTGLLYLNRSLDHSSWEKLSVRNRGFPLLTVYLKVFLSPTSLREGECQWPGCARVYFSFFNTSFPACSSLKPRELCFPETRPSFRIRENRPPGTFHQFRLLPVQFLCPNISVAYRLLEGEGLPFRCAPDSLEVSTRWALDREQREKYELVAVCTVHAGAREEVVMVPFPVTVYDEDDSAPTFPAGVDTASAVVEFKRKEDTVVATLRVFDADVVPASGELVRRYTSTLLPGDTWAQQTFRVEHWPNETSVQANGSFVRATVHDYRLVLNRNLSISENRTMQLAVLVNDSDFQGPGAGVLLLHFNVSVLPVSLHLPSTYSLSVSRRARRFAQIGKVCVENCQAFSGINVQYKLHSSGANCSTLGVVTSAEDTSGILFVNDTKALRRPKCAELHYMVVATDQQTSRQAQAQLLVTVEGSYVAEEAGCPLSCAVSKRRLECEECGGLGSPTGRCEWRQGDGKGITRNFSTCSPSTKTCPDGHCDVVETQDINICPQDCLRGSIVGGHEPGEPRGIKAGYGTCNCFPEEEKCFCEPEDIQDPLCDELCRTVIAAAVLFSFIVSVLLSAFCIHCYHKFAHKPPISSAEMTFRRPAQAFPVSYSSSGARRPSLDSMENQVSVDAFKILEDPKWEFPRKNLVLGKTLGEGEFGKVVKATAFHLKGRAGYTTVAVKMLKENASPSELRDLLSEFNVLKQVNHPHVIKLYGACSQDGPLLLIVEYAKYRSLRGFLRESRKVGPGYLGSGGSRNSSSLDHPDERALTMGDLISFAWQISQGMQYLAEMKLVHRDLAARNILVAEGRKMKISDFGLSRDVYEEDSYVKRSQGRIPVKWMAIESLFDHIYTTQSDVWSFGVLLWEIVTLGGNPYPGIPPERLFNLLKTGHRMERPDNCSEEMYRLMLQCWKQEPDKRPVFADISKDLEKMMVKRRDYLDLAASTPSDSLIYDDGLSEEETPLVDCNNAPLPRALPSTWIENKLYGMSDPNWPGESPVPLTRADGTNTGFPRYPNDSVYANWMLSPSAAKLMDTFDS
Description: [The source words this procedure for another variant and reports this variant under the same test.] as §1, §2

KG-1 = type: cell-based, human; conditions: Homo sapiens, KG-1, anti-cell proliferation
Procedure: (§3) Human medulla thyroid carcinoma cell line TT (containing RET […] mutation) and acute myelogenous cell line KG-1 were purchased from ATCC. Human colon cancer cell line KMI2 (containing TPM3-TRKA) was obtained from NCI.
as §2

KM12 cell (TPM3-TRKA) = type: cell-based, human; conditions: Homo sapiens, KM12, anti-cell proliferation
Procedure: as §3, §2

BaF3 EML4-ALK = biological target: T3, BaF3 EML4-ALK (Homo sapiens, UniProt Q9UM73); type: cell-based; conditions: anti-cell proliferation
T3 construct: The EML4-ALK gene (variant 1) was synthesized at GenScript and cloned into pCDH-CMV-MCS-EF1-Puro plasmid (System Biosciences, Inc); fused on or other part: Q9HC35 (Echinoderm microtubule-associated protein-like 4)
T3 sequence (Q9UM73 whole entry, change not shown, the tested form may be a part): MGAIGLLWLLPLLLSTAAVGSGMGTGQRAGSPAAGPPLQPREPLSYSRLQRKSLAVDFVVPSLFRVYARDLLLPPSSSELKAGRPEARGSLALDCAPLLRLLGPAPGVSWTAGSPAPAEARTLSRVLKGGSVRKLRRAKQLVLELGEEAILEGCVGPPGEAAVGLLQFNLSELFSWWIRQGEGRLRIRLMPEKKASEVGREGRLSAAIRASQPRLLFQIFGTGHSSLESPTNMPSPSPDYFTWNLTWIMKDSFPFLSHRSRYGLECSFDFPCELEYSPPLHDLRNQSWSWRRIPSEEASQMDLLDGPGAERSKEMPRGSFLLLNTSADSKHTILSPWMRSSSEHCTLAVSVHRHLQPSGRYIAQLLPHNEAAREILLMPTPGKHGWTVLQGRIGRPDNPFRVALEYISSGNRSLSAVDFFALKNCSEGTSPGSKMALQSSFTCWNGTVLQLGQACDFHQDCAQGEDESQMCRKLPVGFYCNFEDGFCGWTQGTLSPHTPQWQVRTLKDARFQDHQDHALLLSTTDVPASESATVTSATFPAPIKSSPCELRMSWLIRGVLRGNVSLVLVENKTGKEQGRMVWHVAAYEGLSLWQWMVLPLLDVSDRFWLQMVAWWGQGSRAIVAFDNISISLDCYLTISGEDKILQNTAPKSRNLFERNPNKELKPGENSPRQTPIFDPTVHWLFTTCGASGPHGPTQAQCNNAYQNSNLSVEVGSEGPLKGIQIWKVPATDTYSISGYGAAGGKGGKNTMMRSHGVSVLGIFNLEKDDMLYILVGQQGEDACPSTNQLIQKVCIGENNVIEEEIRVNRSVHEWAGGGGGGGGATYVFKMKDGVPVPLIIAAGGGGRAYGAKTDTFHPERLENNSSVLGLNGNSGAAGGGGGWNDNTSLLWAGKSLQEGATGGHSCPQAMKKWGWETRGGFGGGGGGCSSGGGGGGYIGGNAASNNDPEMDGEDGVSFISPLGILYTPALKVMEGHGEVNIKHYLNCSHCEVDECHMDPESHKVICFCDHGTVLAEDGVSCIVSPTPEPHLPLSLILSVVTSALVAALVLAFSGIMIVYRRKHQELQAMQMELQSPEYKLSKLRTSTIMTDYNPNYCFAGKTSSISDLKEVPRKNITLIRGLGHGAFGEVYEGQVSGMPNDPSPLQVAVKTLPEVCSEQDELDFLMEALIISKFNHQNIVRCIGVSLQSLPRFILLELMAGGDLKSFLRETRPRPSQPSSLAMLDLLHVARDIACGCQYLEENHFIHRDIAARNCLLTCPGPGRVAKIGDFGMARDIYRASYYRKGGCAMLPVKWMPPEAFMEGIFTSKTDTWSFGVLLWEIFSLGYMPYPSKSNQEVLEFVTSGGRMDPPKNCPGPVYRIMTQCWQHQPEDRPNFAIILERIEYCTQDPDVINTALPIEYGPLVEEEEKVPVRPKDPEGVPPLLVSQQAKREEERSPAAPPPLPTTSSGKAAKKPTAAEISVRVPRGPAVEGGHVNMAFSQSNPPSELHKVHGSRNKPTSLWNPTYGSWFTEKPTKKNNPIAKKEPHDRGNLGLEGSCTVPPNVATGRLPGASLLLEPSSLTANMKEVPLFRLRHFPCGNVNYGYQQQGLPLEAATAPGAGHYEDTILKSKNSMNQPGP
Procedure: The EML4-ALK gene (variant 1) was synthesized at GenScript and cloned into pCDH-CMV-MCS-EF1-Puro plasmid (System Biosciences, Inc). Ba/F3-EML4-ALK wild type were generated by transducing Ba/F3 cells with lentivirus containing EML4-ALK wide type. Stable cell lines were selected by puromycin treatment, followed by IL-3 withdrawal. Briefly, 5×10^6 Ba/F3 cells were transduced with lentivirus supernatant in the presence of 8 μg/mL protamine sulfate. The transduced cells were subsequently selected with 1 μg/mL puromycin in the presence of IL3-containing medium RPMI1640, plus 10% FBS. After 10-12 days of selection, the surviving cells were further selected for IL3 independent growth.
as §2

BaF3 KIF5B-RET_V804M = biological target: T4, BaF3 KIF5B-RET_V804M (Homo sapiens, UniProt P07949, V804M, cells depend on it); type: cell-based; conditions: anti-cell proliferation, read-out: BaF3 KIF5B-RET_V804M IC50
T4 construct: fused on or other part: P33176 (Kinesin-1 heavy chain)
T4 sequence (P07949 whole entry V804M, the tested form may be a part): as the sequence (P07949 whole entry G810R, the tested form may be a part) above, with V804M, R810G counted along it
Description: as §1, §2

T1 sequence (P07949 whole entry, change not shown, the tested form may be a part): as the sequence (P07949 whole entry G810R, the tested form may be a part) above, with R810G counted along it

Row | Compound | GI50 (BaF3 KIF5B-RET) [µM] | GI50 (BaF3 KIF5B-RET_G810R) [µM] | IC50 (KG-1) [µM] | IC50 (KM12 cell (TPM3-TRKA)) [µM] | GI50 (BaF3 EML4-ALK) [µM] | GI50 (BaF3 KIF5B-RET_V804M) [µM]
1 | O=C1N[C@H](C2CC2)COc2ncc(F)cc2CN2c3nc4c1cnn4cc3O[C@H]1CCC[C@H]12 [Compound 14, (3aR,12R,20aS)-12-cyclopropyl-7-fluoro-2,3,3a,12,13,20a-hexahydro-1H,5H-17-19-(metheno)cyclopenta[5,6][1,4] oxazino[4,3-i]pyrazolo[4,3-f]pyrido[3,2-l][1,4,8,10]oxatriazacyclotridecin-14(11H)-one] | 0.12 | 0.53 | 0.273 | 0.0266 | 0.908 | –
2 | C[C@H]1CNC(=O)c2cnn3cc4c(nc23)N(Cc2cc(F)cnc2O1)[C@H]1COC[C@H]1O4 [Compound 31, (3aS,11S,20aS)-7-fluoro-11-methyl-1,3,3a,12,13,20a-hexahydro-5H-17,19-(metheno)furo[3′,4′:5,6][1,4]oxazino[3,4-i]pyrazolo[4,3-f]pyrido[3,2-l][1,4,8,10]oxatriazacyclotridecin-14(11H)-one] | 4 | > 10 | 10 | 0.365 | – | > 10
3 | C[C@@H]1COc2ncc(F)cc2CN2c3nc4c(cnn4cc3O[C@H]3CC[C@H]32)C(=O)N1 [Compound 10, (2aR,11R,19aS)-6-fluoro-11-methyl-1,2,2a,11,12,19a-hexahydro-4H-16,18-(metheno)cyclobuta[5,6][1,4] oxazino[3,4-i]pyrazolo[4,3-f]pyrido[3,2-l][1,4,8,10]oxatriazacyclotridecin-13(10H)-one] | 0.274 | – | 0.0783 | 0.0002 | 4 | 1.21
4 | C[C@H]1CNC(=O)c2cnn3cc4c(nc23)N(Cc2cc(F)cnc2O1)[C@H]1CC[C@H]1O4 [Compound 9, (2aS,10S,19aR)-6-fluoro-10-methyl-1,2,2a,11,12,19a-hexahydro-4H-16,18-(metheno)cyclobuta[5,6][1,4] oxazino[3,4-i]pyrazolo[4,3-f]pyrido[3,2-l][1,4,8,10]oxatriazacyclotridecin-13(10H)-one] | 2.36 | – | 1 | 0.0033 | 8 | > 10
5 | CC(=O)N1C[C@H]2Oc3cn4ncc5c4nc3N(Cc3cc(F)cnc3O[C@@H](C)CNC5=O)[C@H]2C1 [Compound 37, (3aS,11S,20aR)-2-acetyl-7-fluoro-11-methyl-2,3,3a,12,13,20a-hexahydro-1H, 5H-17,19-(metheno)pyrazolo[4,3-f]pyrido [3,2-l]pyrrolo[3′,4′:5,6][1,4]oxazino[3,4-i][1,4,8,10]oxatriazacyclotridecin-14(11H)-one] | 8 | – | 3 | 1.2 | > 10 | –
6 | CC(=O)N1C[C@@H]2Oc3cn4ncc5c4nc3N(Cc3cc(F)cnc3O[C@@H](C)CNC5=O)[C@@H]2C1 [Compound 36, (3aR,11S,20aS)-2-acetyl-7-fluoro-11-methyl-2,3,3a,12,13,20a-hexahydro-1H, 5H-17,19-(metheno)pyrazolo[4,3-f]pyrido [3,2-l]pyrrolo[3′,4′:5,6][1,4]oxazino[3,4-i][1,4,8,10]oxatriazacyclotridecin-14(11H)-one] | 8 | – | 10 | 1 | > 10 | –
7 | O=C1N[C@H]2CC[C@H](C2)Oc2ncc(F)cc2CN2c3nc4c1cnn4cc3O[C@H]1CCC[C@H]12 [Compound 41, (3aR,11R,14S,22aS)-7-fluoro-2,3,3a,12,13,14,15,22a-octahydro-1H, 5H-11,14-metheno-19,21-(metheno)cyclopenta[5,6][1,4] oxazino[4,3-e]pyrazolo[3,4-h]pyrido[2,3-b][1,5,7,11]oxatriazacyclopentadecin-16(11H)-one] | 0.0051 | 0.156 | 0.389 | 0.431 | 1.45 | –
8 | O=C1NC[C@@H](O)COc2ncc(F)cc2CN2c3nc4c1cnn4cc3O[C@H]1CCC[C@H]12 [Compound 43, (3aR,12R,21aS)-7-fluoro-12-hydroxy-2,3,3a,11,12,13,14,21a-octahydro-1H, 5H,15H-18,20-(metheno)cyclopenta[5,6][1,4] oxazino[4,3-e]pyrazolo[3,4-h]pyrido[2,3-b][1,5,7,11]oxatriazacyclotetradecin-15-one] | 0.0689 | 0.396 | 0.359 | 0.109 | 2.99 | –
9 | C[C@@H]1CCNC(=O)c2cnn3cc4c(nc23)N(Cc2cc(F)cnc2O1)[C@@H]1CCC[C@@H]1O4 [Compound 35, (3aR,11R,21aS)-7-fluoro-11-methyl-2,3,3a,11,12,13,14,21a-octahydro-1H,5H,15H-18,20-(metheno)cyclopenta[5,6][1,4]oxazino[4,3-e]pyrazolo[3,4-h]pyrido[2,3-b][1,5,7,11]oxatriazacyclotetradecin-15-one] | 0.0088 | – | 0.0557 | < 0.0002 | 1.1 | –
10 | C[C@H]1CNC(=O)c2cnn3cc4c(nc23)N(Cc2cc(F)cnc2O1)[C@@H]1CC[C@@H]1O4 [Compound 8, (2aR,10S,19aS)-6-fluoro-10-methyl-1,2,2a,11,12,19a-hexahydro-4H-16,18-(metheno)cyclobuta[5,6][1,4] oxazino[3,4-i]pyrazolo[4,3-f]pyrido[3,2-l][1,4,8,10]oxatriazacyclotridecin-13(10H)-one] | 0.342 | – | 0.189 | 0.0003 | 4 | 1.93
11 | CC1(C)CCOc2ncc(F)cc2CN2c3nc4c(cnn4cc3O[C@H]3CCC[C@H]32)C(=O)N1 [Compound 34, (3aR,21aS)-7-fluoro-13,13-dimethyl-2,3,3a,11,12,13,14,21a-octahydro-1H,5H,15H-18,20-(metheno)cyclopenta[5,6][1,4]oxazino[4,3-e]pyrazolo[3,4-h]pyrido[2,3-b][1,5,7,11]oxatriazacyclotetradecin-15-one] | 0.0622 | 0.651 | 0.408 | 0.05 | 1 | –
12 | C[C@@H]1COc2ncc(F)cc2CN2c3nc4c(cnn4cc3O[C@@H]3CC[C@@H]32)C(=O)N1 [Compound 11, (2aS,11R,19aR)-6-fluoro-11-methyl-1,2,2a,11,12,19a-hexahydro-4H-16,18-(metheno)cyclobuta[5,6][1,4] oxazino[3,4-i]pyrazolo[4,3-f]pyrido[3,2-l][1,4,8,10]oxatriazacyclotridecin-13(10H)-one] | 0.839 | – | 0.307 | 0.0004 | – | 3
13 | O=C1N[C@@H]2CC[C@@H](C2)Oc2ncc(F)cc2CN2c3nc4c1cnn4cc3O[C@H]1CCC[C@H]12 [Compound 42, (3aR,11S,14R,22aS)-7-fluoro-2,3,3a,12,13,14,15,22a-octahydro-1H, 5H-11,14-metheno-19,21-(metheno)cyclopenta[5,6][1,4] oxazino[4,3-e]pyrazolo[3,4-h]pyrido[2,3-b][1,5,7,11]oxatriazacyclopentadecin-16(11H)-one] | 0.0005 | 0.0174 | 0.041 | 0.0098 | 0.338 | –
